Measured values as given in ChEMBL document CHEMBL3600353, “In Vitro Activity of Epigallocatechin Gallate and Quercetin Alone and in Combination versus Clinical Isolates of Methicillin-Resistant Staphylococcus aureus” (2015).
The source made the active and inactive calls. The calls are words filed in the database; no cut-off is given here.

Experiments:
[1] = tested on: Staphylococcus aureus; test: Antibacterial activity against methicillin-resistant Staphylococcus aureus isolate 5 by disk diffusion assay; format: functional
[2] = tested on: Staphylococcus aureus; test: Antibacterial activity against methicillin-resistant Staphylococcus aureus isolate 8 after 24 hrs by checkerboard assay; format: functional; conditions: isolate 8, 24 h
[3] = tested on: Staphylococcus aureus; test: Antibacterial activity against methicillin-resistant Staphylococcus aureus isolate 1 after 24 hrs by checkerboard assay; format: functional; conditions: isolate 1, 24 h
[4] = tested on: Staphylococcus aureus; test: Antibacterial activity against methicillin-resistant Staphylococcus aureus isolate 4 by disk diffusion assay; format: functional
[5] = tested on: Staphylococcus aureus; test: Antibacterial activity against methicillin-resistant Staphylococcus aureus isolate 4 after 24 hrs by checkerboard assay; format: functional; conditions: isolate 4, 24 h
[6] = tested on: Staphylococcus aureus; test: Antibacterial activity against vancomycin-intermediate resistant Staphylococcus aureus Mu50 after 24 hrs by checkerboard assay; format: functional; conditions: Mu50, 24 h
[7] = tested on: Staphylococcus aureus; test: Antibacterial activity against methicillin-sensitive Staphylococcus aureus ATCC 25923 at 1.69 mM after 5 hrs by time kill assay; format: functional, organism-based
[8] = tested on: Staphylococcus aureus; test: Antibacterial activity against methicillin-sensitive Staphylococcus aureus ATCC 25923 at 1.69 mM after 4 hrs by time kill assay; format: functional, organism-based
[9] = tested on: Staphylococcus aureus; test: Antibacterial activity against methicillin-resistant Staphylococcus aureus NCTC 12493 at 1.69 mM after 4 hrs by time kill assay; format: functional, organism-based
[10] = tested on: Staphylococcus aureus; test: Antibacterial activity against methicillin-resistant Staphylococcus aureus isolate 5 after 24 hrs by checkerboard assay; format: functional; conditions: isolate 5, 24 h
[11] = tested on: Staphylococcus aureus; test: Antibacterial activity against methicillin-resistant Staphylococcus aureus isolate 9 after 24 hrs by checkerboard assay; format: functional; conditions: isolate 9, 24 h
[12] = tested on: Staphylococcus aureus; test: Antibacterial activity against methicillin-resistant Staphylococcus aureus isolate 3 by disk diffusion assay; format: functional
[13] = tested on: Staphylococcus aureus; test: Antibacterial activity against methicillin-resistant Staphylococcus aureus isolate 2 by disk diffusion assay; format: functional
[14] = tested on: Staphylococcus aureus; test: Antibacterial activity against methicillin-resistant Staphylococcus aureus isolate 3 after 24 hrs by checkerboard assay; format: functional; conditions: isolate 3, 24 h
[15] = tested on: Staphylococcus aureus; test: Antibacterial activity against methicillin-resistant Staphylococcus aureus isolate 6 after 24 hrs by checkerboard assay; format: functional; conditions: isolate 6, 24 h
[16] = tested on: Staphylococcus aureus; test: Antibacterial activity against methicillin-resistant Staphylococcus aureus isolate 7 after 24 hrs by checkerboard assay; format: functional; conditions: isolate 7, 24 h
[17] = tested on: Staphylococcus aureus; test: Antibacterial activity against Staphylococcus aureus ATCC 25923 after 24 hrs by checkerboard assay; format: functional; conditions: ATCC 25923, 24 h
[18] = tested on: Staphylococcus aureus; test: Antibacterial activity against methicillin-resistant Staphylococcus aureus isolate 1 by disk diffusion assay; format: functional
[19] = tested on: Staphylococcus aureus; test: Antibacterial activity against methicillin-resistant Staphylococcus aureus isolate 7 by disk diffusion assay; format: functional
[20] = tested on: Staphylococcus aureus; test: Antibacterial activity against vancomycin-intermediate resistant Staphylococcus aureus Mu50 at 1.69 mM after 4 hrs by time kill assay; format: functional, organism-based
[21] = tested on: Staphylococcus aureus; test: Antibacterial activity against methicillin-resistant Staphylococcus aureus NCTC 12493 at 1.69 mM after 5 hrs by time kill assay; format: functional, organism-based
[22] = tested on: Staphylococcus aureus; test: Antibacterial activity against methicillin-resistant Staphylococcus aureus isolate 9 by disk diffusion assay; format: functional
[23] = tested on: Staphylococcus aureus; test: Antibacterial activity against methicillin-resistant Staphylococcus aureus isolate 6 by disk diffusion assay; format: functional
[24] = tested on: Staphylococcus aureus; test: Antibacterial activity against methicillin-resistant Staphylococcus aureus NCTC 12493 assessed as log reduction of bacterial growth after 9 hrs; format: functional
[25] = tested on: Staphylococcus aureus; test: Antibacterial activity against methicillin-resistant Staphylococcus aureus NCTC 12493 after 24 hrs by checkerboard assay; format: functional; conditions: NCTC 12493, 24 h
[26] = tested on: Staphylococcus aureus; test: Antibacterial activity against methicillin-resistant Staphylococcus aureus isolate 2 after 24 hrs by checkerboard assay; format: functional; conditions: isolate 2, 24 h
[27] = tested on: Staphylococcus aureus; test: Antibacterial activity against methicillin-resistant Staphylococcus aureus isolate 8 by disk diffusion assay; format: functional

O=c1c(O)c(-c2ccc(O)c(O)c2)oc2cc(O)cc(O)c12 [QUERCETIN]
inhibition zone (IZ) [1]: inactive
MIC [2]: 1690 µM
MIC [3]: 1690 µM
inhibition zone (IZ) [4]: inactive
MIC [5]: 1690 µM
MIC [6]: 1690 µM
Activity [7]: inactive
Activity [8]: Active
Activity [9]: Active
MIC [10]: 1690 µM
MIC [11]: 1690 µM
inhibition zone (IZ) [12]: inactive
inhibition zone (IZ) [13]: inactive
MIC [14]: 1690 µM
MIC [15]: 1690 µM
MIC [16]: 1690 µM
MIC [17]: 1690 µM
inhibition zone (IZ) [18]: 8 mm
inhibition zone (IZ) [19]: inactive
Activity [20]: inactive
Activity [21]: inactive
inhibition zone (IZ) [22]: inactive
inhibition zone (IZ) [23]: inactive
FC [24]: 1
MIC [25]: 850 µM
MIC [26]: 1690 µM
inhibition zone (IZ) [27]: inactive
